Publication PMC7822874, “Chemoprotective antimalarials identified through quantitative high-throughput screening of Plasmodium blood and liver stage parasites” (Scientific Reports, 2021)
Like-named read-outs stand apart in the source and are kept apart here.

Tests used:
[1] = test system: Plasmodium falciparum Dd2 asexual blood stage parasites; assay: microbe, parasite or virus in culture; set-up: species or system Plasmodium falciparum Dd2 in human erythrocytes; single determination (one 11-point concentration-response curve); conditions: Plasmodium falciparum, DD2, Erythrocyte, 72 h; read-out: AC50
[2] = in vitro; conditions: human, HepG2-A16-CD81EGFP cells, uninfected
[3] = test system: P. berghei-ANKA-GFP-LucCON liver stage parasites in HepG2-A16-CD81EGFP cells; assay: P. berghei liver stage Pb-Luc assay, Method 1 (UCSD, 1536-well); type: cell-based, Plasmodium berghei; conditions: Plasmodium berghei, 48 h, average of 2 wells, 1536-well plate; for activity at 1 µM: nominal 1 uM (10 mM stock), […] for 15 mM, 1.2 uM for 12 mM, 2 uM for 20 mM stock; for activity at 3 µM: nominal 3 uM (10 mM stock), 4.5 uM for 15 mM, 3.6 uM for 12 mM, 6 uM for 20 mM stock; as to all read-outs here: reference of the scale not given here
[4] = test system: HepG2-A16-CD81EGFP cells
[5] = repeat 1, read-out: Pb-Luc signal, 1 uM, repeat 1
[6] = repeat 2, read-out: Pb-Luc signal, 1 uM, repeat 2
[7] = repeat 3, read-out: Pb-Luc signal, 1 uM, repeat 3
[8] = repeat 1, read-out: Pb-Luc signal, 3 uM, repeat 1
[9] = repeat 2, read-out: Pb-Luc signal, 3 uM, repeat 2
[10] = repeat 3, read-out: Pb-Luc signal, 3 uM, repeat 3
[11] = nominal 1 uM (10 mM stock), […] for 15 mM, 1.2 uM for 12 mM, 2 uM for 20 mM stock, average of 2 wells, repeat 2
[12] = nominal 3 uM (10 mM stock), 4.5 uM for 15 mM, 3.6 uM for 12 mM, 6 uM for 20 mM stock, average of 2 wells, repeat 2

Row | SMILES | AC50 [1] [µM] | viability at 48 h, 1 µM [2] [%] | viability at 48 h, 3 µM [2] [%] | activity at 1 µM [3, 5] [%] | activity at 1 µM [3, 6] [%] | activity at 1 µM [3, 7] [%] | activity at 3 µM [3, 8] [%] | activity at 3 µM [3, 9] [%] | activity at 3 µM [3, 10] [%] | HepG2 viability signal, 1 uM, repeat 2 [4, 11] [%] | HepG2 viability signal, 3 uM, repeat 2 [4, 12] [%] | HepG2 viability signal, 1 uM, repeat 2 [4] [%] | HepG2 viability signal, 3 uM, repeat 2 [4] [%]
1 | Cc1ccc(C)c(Oc2c(C(F)(F)F)oc3c(CN4CCN(C)CC4)c(O)ccc3c2=O)c1 [NCGC00141020-01] | 0.75 | 110 | 115 | 97.7 | 131 | 113 | 86 | 92.3 | 113 | 106.86 | 105.57 | – | –
2 | COC(=O)c1ccc2[nH]c(C[C@@H]3C[C@@H](C(C)C)[C@H](CNC4CCCCC4)C=C3C)nc2c1 [NCGC00401987-01] | 8.41 | 99.2 | 102 | 81.1 | 132 | 98.9 | 56.8 | 65 | 83.4 | 103.84 | 105.05 | – | –
3 | O=C(Nc1ccc2c(N3CCCC3)ncnc2c1)c1cccc(F)c1 [NCGC00425501-01] | 4.73 | 98.5 | 94.4 | 97.2 | 101 | 106 | 56.8 | 72.2 | 29.3 | 97.92 | 95.12 | – | –
4 | CCOC(=O)C1(Cc2ccccc2C(F)(F)F)CCNCC1 [NCGC00433719-01] | – | 108 | 105 | 99.2 | 89.8 | 165 | 76.2 | 96.6 | 91.6 | 106.17 | 103.00 | – | –
5 | Cn1nc(C(=O)NCC(=O)N2CCCCCCNC(=O)CC2c2ccccc2)c2ccccc21 (centres unmarked) [NCGC00467428-01] | 2.11 | 108 | 106 | 90.2 | 74 | 75.4 | 105 | 88.2 | 105 | 105.85 | 101.81 | – | –
6 | Cc1ccccc1CC(=O)NCc1nnc2cc(-c3nc(C4CC4)no3)ccn12 [NCGC00457761-01] | – | 109 | 107 | 130 | 129 | 103 | 86.9 | 122 | 133 | 102.90 | 101.49 | – | –
7 | COc1ccccc1NC(=O)Cn1cccc1-c1nc(-c2ccc(F)cc2)no1 [NCGC00445349-01] | – | 107 | 107 | 128 | 112 | 138 | 108 | 129 | 93.3 | 104.40 | 104.77 | – | –
8 | C[C@H]1[C@@H]2[C@H]3OC(=O)[C@@H](C)[C@@H]3CC[C@@]2(C)CC[C@@H]1NC(=O)CC(C)(C)C [NCGC00392703-01] | – | 95.8 | 99 | 105 | 129 | 103 | 126 | 109 | 99.6 | 102.40 | 102.42 | – | –
9 | O=C(O)c1ccc(-c2nc3cnccc3[nH]2)cc1 [NCGC00375713-01] | – | 105 | 104 | 93.2 | 89.1 | 137 | 91.8 | 93.1 | 98.5 | 104.68 | 103.76 | – | –
10 | COc1ccc(Cl)cc1[S+](=O)([O-])N1CCC2(CCCNC2)C1 (centres unmarked) [NCGC00431241-01] | – | 112 | 108 | 96.7 | 98.8 | 61.1 | 98.4 | 74.5 | 79.2 | 104.68 | 95.82 | – | –
11 | COc1ccc(CN2CCCC3(C2)C(NC2CCCCC2)=NC(=O)N3c2cc(F)cc(F)c2)cc1 (centres unmarked) [NCGC00373972-01] | – | 107 | 105 | 89.2 | 98.6 | 137 | 120 | 103 | 87.7 | 102.91 | 99.86 | – | –
12 | COc1ccc(OC)c(NC(=O)c2ccc3c(c2)N([S+](=O)([O-])c2ccccc2)CC3)c1 [NCGC00430430-01] | – | 112 | 109 | 111 | 108 | 91.3 | 102 | 79.3 | 99.8 | – | – | 105.03 | 97.67
13 | Cc1ccc([S+](=O)([O-])N2CCC(OC3CCN(Cc4ccccc4)CC3)CC2)c(C)c1 [NCGC00444944-01] | – | 111 | 107 | 76.1 | 74 | 76.6 | 78.2 | 61.2 | 56.1 | 105.13 | 100.76 | – | –
14 | CN1c2cc(C(=O)Nc3ccc(C(F)(F)F)cc3)ccc2C(=O)N2CCCCC21 (centres unmarked) [NCGC00452394-01] | – | 104 | 110 | 89.2 | 103 | 126 | 97.6 | 85.9 | 102 | 105.25 | 108.50 | – | –
15 | CCC(=O)N1CCc2cc(Br)cc([S+](=O)([O-])N3CCCC(C(=O)Nc4ccc(OC)c(Cl)c4)C3)c21 (centres unmarked) [NCGC00106201-01] | – | 90.7 | 82.3 | 76.1 | 86.6 | 75.8 | 53.5 | 100 | 60 | – | – | 91.30 | 86.54
16 | COc1ccc(-c2noc(-c3cccn3CC(=O)Nc3cccc(Cl)c3C)n2)cc1F [NCGC00445510-01] | – | 104 | 105 | 103 | 114 | 132 | 102 | 91.7 | 124 | 99.09 | 100.27 | – | –
17 | COc1cccc(CN2CCC(Oc3ccc(-c4noc(C5CC5)n4)cc3)C2)c1 (centres unmarked) [NCGC00440915-01] | – | 102 | 96.6 | 92.7 | 110 | 96 | 64.2 | 65.8 | 35.3 | 97.97 | 94.86 | – | –
18 | O=C1NCc2ccccc2CC12CCCN(Cc1ccccc1)C2 (centres unmarked) [NCGC00377595-01] | – | 104 | 104 | 90.7 | 117 | 140 | 93.9 | 108 | 117 | 103.34 | 104.13 | – | –
19 | COc1ccc(-c2noc(-c3cccn3CC(=O)Nc3ccc(C)cc3Cl)n2)cc1F [NCGC00445494-01] | – | 99.5 | 104 | 118 | 111 | 98.1 | 77.8 | 91.7 | 106 | 100.81 | 103.68 | – | –
